Source: article PMC5840146, “Structure-Activity Relationship Analysis of 3-Phenylcoumarin-Based Monoamine Oxidase B Inhibitors” (Frontiers in Chemistry, 2018)
Several values for one entry are separate records, joined by “and”; a condition that tells them apart may be missing. Equal entries are not always repeated.

Assays:
MAO-B [1] = biological target: T1, MAO-B (Homo sapiens, UniProt P27338); experiment: MAO-B inhibition of prior 3-phenylcoumarins (literature data); type: biochemical; details: LiPE = pIC50 - QPlogPo/w, literature IC50
T1 construct: purchased Sigma-Aldrich
T1 sequence (P27338 1-520): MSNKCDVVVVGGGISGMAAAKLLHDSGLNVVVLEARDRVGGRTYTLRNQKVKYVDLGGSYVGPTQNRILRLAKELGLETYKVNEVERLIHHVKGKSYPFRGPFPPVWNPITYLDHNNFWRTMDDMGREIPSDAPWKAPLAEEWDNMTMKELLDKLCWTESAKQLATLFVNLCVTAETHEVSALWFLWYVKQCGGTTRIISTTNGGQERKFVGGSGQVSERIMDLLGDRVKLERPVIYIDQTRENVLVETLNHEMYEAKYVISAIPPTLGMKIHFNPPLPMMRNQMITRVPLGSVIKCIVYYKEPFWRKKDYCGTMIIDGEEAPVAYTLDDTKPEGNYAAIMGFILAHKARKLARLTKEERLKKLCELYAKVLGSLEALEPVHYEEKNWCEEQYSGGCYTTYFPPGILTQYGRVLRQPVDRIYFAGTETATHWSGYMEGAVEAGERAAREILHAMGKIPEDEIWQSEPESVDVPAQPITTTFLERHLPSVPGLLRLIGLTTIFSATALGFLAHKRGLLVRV

ERα = biological target: T2, ERα (Homo sapiens, UniProt P03372); experiment: PolarScreen ER Alpha Competitor Assay (fluorescence polarization); type: binding; details: for ER inhibition %: 10 μM
T2 construct: purchased Life Technologies
T2 sequence (P03372 1-595): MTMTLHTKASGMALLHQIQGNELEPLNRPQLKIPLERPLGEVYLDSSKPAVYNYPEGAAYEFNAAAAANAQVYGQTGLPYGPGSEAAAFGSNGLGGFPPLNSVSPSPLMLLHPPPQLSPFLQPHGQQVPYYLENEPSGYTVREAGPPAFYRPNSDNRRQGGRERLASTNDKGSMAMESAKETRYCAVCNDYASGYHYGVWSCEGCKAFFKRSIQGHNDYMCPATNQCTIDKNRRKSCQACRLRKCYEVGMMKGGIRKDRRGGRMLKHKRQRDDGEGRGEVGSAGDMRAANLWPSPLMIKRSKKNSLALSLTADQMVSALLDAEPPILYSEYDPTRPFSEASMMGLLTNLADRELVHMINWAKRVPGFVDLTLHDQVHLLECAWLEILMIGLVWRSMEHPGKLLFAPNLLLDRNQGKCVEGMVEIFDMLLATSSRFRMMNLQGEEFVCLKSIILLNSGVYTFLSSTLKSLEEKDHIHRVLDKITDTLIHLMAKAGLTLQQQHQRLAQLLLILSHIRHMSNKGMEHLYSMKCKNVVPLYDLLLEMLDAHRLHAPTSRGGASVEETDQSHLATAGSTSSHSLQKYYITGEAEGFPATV
Experimental: The pIC50 values for the derivatives (Table 1, Supplementary Table S1) were measured with green PolarScreen™ ER Alpha Competitor Assay (Life Technologies, CA, The United States of America) kit, following the manufacturer protocol as previously described (Niinivehmas et al., [2016]). The final concentration of the compounds ranged from 0.0007 to 10 000 nM in the dilution series which were performed as duplicates. The molecules were combined with 25 nM ERα and 4.5 nM fluormone in the assay buffer and placed on black low volume 384-well assay plate with NBS surface (Corning, NY, The United States of America). After mixing the assay plate, it was incubated for 2 h in RT. The fluorescence polarization was measured using excitation wave length 485 and emission wave length 535 with bandwidths of 25/20 nm on a 2104 EnVision® Multilabel Plate Reader which had EnVision Workstation version 1.7 (PerkinElmer, MA, The United States of America).

MAO-A = biological target: T3, MAO-A (Homo sapiens, UniProt P21397); experiment: continuous spectrophotometric MAO-A inhibition assay; type: biochemical; details: for MAO-A inhibition %: 100 µM, 1h
T3 construct: purchased Sigma-Aldrich
T3 sequence (P21397 1-527): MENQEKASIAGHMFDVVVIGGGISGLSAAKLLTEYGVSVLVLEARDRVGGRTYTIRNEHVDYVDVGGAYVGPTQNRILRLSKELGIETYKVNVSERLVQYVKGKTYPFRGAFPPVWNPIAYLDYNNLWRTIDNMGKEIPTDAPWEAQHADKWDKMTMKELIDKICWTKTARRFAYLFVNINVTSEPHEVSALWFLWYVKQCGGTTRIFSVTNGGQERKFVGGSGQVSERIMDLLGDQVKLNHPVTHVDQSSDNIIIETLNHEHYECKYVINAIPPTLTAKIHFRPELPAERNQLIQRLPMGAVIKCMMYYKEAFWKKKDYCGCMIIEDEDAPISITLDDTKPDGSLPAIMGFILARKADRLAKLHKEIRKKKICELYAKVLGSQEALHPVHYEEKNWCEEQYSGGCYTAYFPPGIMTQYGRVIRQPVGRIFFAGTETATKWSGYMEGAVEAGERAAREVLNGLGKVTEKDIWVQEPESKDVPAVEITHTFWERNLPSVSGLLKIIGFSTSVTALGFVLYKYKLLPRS
Experimental: (§1) Both monoamine oxidase A (MAO-A) and B (MAO-B) protein and the reagents for the chromogenic solution of vanillic acid (4-hydroxy-3-methoxylbenzoic acid, 97% purity), 4-aminoantipyrine (reagent grade), horseradish peroxidase and the substrate tyramine hydrochloride (minimum 99% purity) as well as the potassium phosphate buffer, which was prepared using potassium phosphate dibasic trihydrate (≥99% ReagentPlus™) and potassium phosphate monobasic (minimum 98% purity, molecular biology tested), were purchased from Sigma-Aldrich (St. Louis, MO, USA) for the spectrophotometric assay.
(§2) The protocol for continuous spectrophotometric assay (Holt et al., [1997]) was followed in the activity measurements. The assay was performed in 0.2 M potassium phosphate buffer pH 7.6 on 96-well plates (Nunc™ 96F microwell plate without a lid, Nunc A/S, Roskilde, DK) in 200 μl total volume. The chromogenic solution containing 1 mM vanillic acid, 500 μM 4-aminoantipyrine and 8 U/ml horseradish peroxidase in 0.2 M potassium phosphate buffer pH 7.6 was mixed anew for each measurement. 5 mM tyramine solution was used as the substrate. In order to determine the activity of both MAO-B and MAO-A, concentration series as duplicates were prepared. The protein was combined with the chromogenic solution and incubated 30 min at 37°C. The background signal was measured using multilabel reader (Victor^TM X4, 2030 Multilabel Reader, PerkinElmer, Waltham, MA, USA) at A490 before reaching the total 200 μl volume by adding 20 μl of tyramine to final concentration of 0.5 mM on the plate. As a result, the final concentration of the chromogenic solution on the plate was 250 μM vanillic acid, 125 μM 4-aminoantipyrine and 2 U/ml horseradish peroxide. After adding the substrate, the plates were measured 300 times every 15 s using 1 s exposure time. The device was set to 37°C for the duration of the experiment.
(§3) The experiment conditions should produce absorbance change of ~0.35 (Holt et al., [1997]). […] The same wide panel of coumarin derivatives was additionally used to analyze the MAO-A inhibition at 100 μM (Table 1, Supplementary Table S1).
(§4) The measured data was then fitted on a curve using non-linear regression with the equation for log[inhibitor] vs. response. The IC50 values were therefore determined based on the curve fit. The fitted curves are shown on –log scale in Supplementary Figures S1, S2.

MAO-B [2] = biological target: T1, MAO-B; experiment: continuous spectrophotometric MAO-B inhibition assay; type: biochemical; details: for MAO-B inhibition %: 10 µM, 2h; for LiPE: LiPE = pIC50 - QPlogPo/w, new analogs and pargyline; for IC50: dilution series 50 μM to 1 nM, duplicates, read-out: MAO-B inhibition IC50
Experimental: as §1, §2, §3, §4

recombinant human HSD1 = biological target: T4, recombinant human HSD1 (Homo sapiens, UniProt P14061); experiment: HSD1 inhibition by HPLC with tritium labeled estrone/estradiol; type: biochemical; details: 1 μM
T4 construct: made in house; host or cells: Sf9 insect cells
T4 sequence (P14061 1-328): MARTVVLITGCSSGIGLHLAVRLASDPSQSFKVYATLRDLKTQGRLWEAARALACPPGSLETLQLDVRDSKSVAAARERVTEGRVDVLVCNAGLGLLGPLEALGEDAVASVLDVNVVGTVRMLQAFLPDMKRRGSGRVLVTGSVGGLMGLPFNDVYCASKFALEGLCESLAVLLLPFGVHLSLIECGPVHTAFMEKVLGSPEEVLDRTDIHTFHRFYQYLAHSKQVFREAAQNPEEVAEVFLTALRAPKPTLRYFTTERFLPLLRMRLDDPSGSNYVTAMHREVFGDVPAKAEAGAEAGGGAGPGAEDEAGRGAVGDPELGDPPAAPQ

human CYP1A2 = biological target: T5, human CYP1A2 (Homo sapiens, UniProt P05177); experiment: CYP1A2 inhibition, 7-ethoxyresorufin fluorescence assay; type: biochemical
T5 construct: purchased Corning Inc
T5 sequence (P05177 1-516): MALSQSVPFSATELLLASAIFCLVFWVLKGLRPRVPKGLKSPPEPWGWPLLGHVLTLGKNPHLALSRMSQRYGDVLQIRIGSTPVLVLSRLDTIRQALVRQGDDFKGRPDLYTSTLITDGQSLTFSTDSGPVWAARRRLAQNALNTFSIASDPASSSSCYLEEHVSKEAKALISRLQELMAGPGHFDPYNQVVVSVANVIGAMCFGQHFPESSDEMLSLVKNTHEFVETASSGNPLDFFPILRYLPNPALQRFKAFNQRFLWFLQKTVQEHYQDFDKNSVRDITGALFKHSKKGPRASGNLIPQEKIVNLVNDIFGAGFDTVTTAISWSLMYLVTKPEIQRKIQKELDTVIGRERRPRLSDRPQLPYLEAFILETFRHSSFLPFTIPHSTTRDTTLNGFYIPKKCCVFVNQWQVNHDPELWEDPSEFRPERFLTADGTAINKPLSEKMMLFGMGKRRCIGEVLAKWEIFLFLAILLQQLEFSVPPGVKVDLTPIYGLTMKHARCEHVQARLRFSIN
Experimental: Inhibition of CYP1A2 activity was determined with commercial heterologously expressed human CYP1A2 enzyme (Corning Inc., Corning, NY, USA) as described earlier (Korhonen et al., [2005]). The metabolic activity was not in the scope of this particular study. The assay was adapted to the 96-well plate format. In each well, a 150 μL incubation volume contained 100 mM Tris-HCl buffer (pH 7.4), 4.2 mM MgCl2,1 μM 7-ethoxyresorufin, 0.5 pmol of cDNA expressed CYP1A2, […] inhibitor, and a NADPH-generating system. All inhibitors were dissolved in ethanol, and the final concentration of ethanol was 2% in all incubations. The reaction was initiated by adding the NADPH-regenerating system after a 10 min preincubation at 37°C, and after a 20 min incubation, the reaction was terminated by the addition of 110 μL of 80% acetonitrile/20% 0.5 M Tris base. The formed fluorescence was measured with a Victor2 plate counter (Perkin-Elmer Life Sciences Wallac, Turku, Finland) at 570 nm excitation and 616 nm emission.

Structure (SMILES)	ER inhibition % (ERα) [%]	MAO-A inhibition % (MAO-A) [%]	MAO-B inhibition % (MAO-B [2]) [%]	IC50 (human CYP1A2) [µM]	HSD1 inhibition % (recombinant human HSD1) [%]	also measured
COc1ccc(-c2c(O)c3ccccc3oc2=O)cc1Cl [CHEMBL1934675]						LiPE (MAO-B [1]): 1.85
O=c1oc2c(O)cccc2cc1-c1ccc(O)cc1 [derivative 44]	96.18	22.39	22.52			ER activity (in words) (ERα): prominent
O=c1oc2c(O)cccc2cc1-c1cccc(O)c1 [derivative 43]	0.00	56.76	22.93			
O=c1oc2cc(O)cc(O)c2cc1-c1cccc(O)c1 [derivative 42]	0.44	48.86	23.30			
O=c1oc2cc(O)cc(O)c2cc1-c1ccc(O)cc1 [derivative 45]	0.13	43.38	21.38			
O=c1oc2cc(O)ccc2cc1-c1cccc(O)c1 [derivative 40]	18.58	0.00	25.74			ER activity (in words) (ERα): prominent
CC(=O)Oc1ccc(-c2cc3cc(Cl)cc(Cl)c3oc2=O)cc1F [derivative 7, 4-(6,8-dichloro-2-oxo-2H-chromen-3-yl)-2-fluorophenyl acetate]				46		inhibition at 1 µM (recombinant human HSD1): 0%; inhibition at 100 µM (MAO-A): 0%; inhibition at 10 µM (MAO-B [2]): 91%; LiPE (MAO-B [2]): 2.69; IC50 (MAO-B [2]): 0.888 µM
O=c1oc2c(Cl)cc(Cl)cc2cc1-c1ccc(F)cc1 [derivative 49]	0.66	0.00	10.23		1.30	
COc1cc(OC)cc(-c2cc3cc(OC)ccc3oc2=O)c1 [derivative 9, 3-(3,5-dimethoxyphenyl)-6-methoxy-2H-chromen-2-one]				84		inhibition at 1 µM (recombinant human HSD1): 0%; inhibition at 100 µM (MAO-A): 0%; inhibition at 10 µM (MAO-B [2]): 80.2%; LiPE (MAO-B [2]): 3.38; IC50 (MAO-B [2]): ~0.255 µM and 0.255 µM
COc1cc(OC)cc(-c2cc3cc(Cl)cc(Cl)c3oc2=O)c1 [derivative 34]		0.00	46.01	30	0.30	
Cc1ccc2oc(=O)c(-c3ccc(O)cc3)cc2c1 [CHEMBL577099]						LiPE (MAO-B [1]): 4.06
CC(=O)Oc1cccc2cc(-c3ccc(F)cc3)c(=O)oc12 [derivative 47]		22.33	15.81	17	0.00	
CC(=O)Oc1ccc2cc(-c3ccccc3)c(=O)oc2c1 [derivative 52]		0.00	0.00	80	0.70	MAO-B inhibition (in words) (MAO-B [2]): activity is lost
